The source made the active and inactive calls. No cut-off for these calls is given here.
Legend:
[1] = Absorption property of compound in CH3CN assessed as maximal wavelength by UV-vis spectrophotometer; assay type: physicochemical
NCI-H460 [2] = test: Antiproliferative activity against human NCI-H460 cells assessed as inhibition of cell growth incubated for 72 hrs under photoirradiation with 6 cool white lamps for 15 mins at 4,28 and 52 hrs after compound addition by MTT assay; assay type: functional, cell-based; details: NCI-H460, light or radiation study
[3] = Fluorescence property of compound in CH3CN assessed as fluorescence quantum yield by spectrofluorometric analysis; assay type: physicochemical
NCI-H460 [4] = test: Antiproliferative activity against human NCI-H460 cells assessed as inhibition of cell growth incubated for 72 hrs under dark condition by MTT assay; assay type: functional, cell-based; details: NCI-H460, 72 h
HCT-116 [5] = test: Antiproliferative activity against human HCT-116 cells assessed as inhibition of cell growth incubated for 72 hrs under dark condition by MTT assay; assay type: functional, cell-based; details: HCT-116, 72 h
MCF7 [6] = test: Antiproliferative activity against human MCF7 cells assessed as inhibition of cell growth incubated for 72 hrs under dark condition by MTT assay; assay type: functional, cell-based; details: MCF7, 72 h
MCF7 [7] = test: Antiproliferative activity against human MCF7 cells assessed as inhibition of cell growth incubated for 72 hrs under photoirradiation with 6 cool white lamps for 15 mins at 4,28 and 52 hrs after compound addition by MTT assay; assay type: functional, cell-based; details: MCF7, light or radiation study
[8] = Absorption property of compound in CH3CN assessed as maximal molar absorption coefficient by UV-vis spectrophotometer; assay type: physicochemical
HCT-116 [9] = test: Antiproliferative activity against human HCT-116 cells assessed as inhibition of cell growth incubated for 72 hrs under photoirradiation with 6 cool white lamps for 15 mins at 4,28 and 52 hrs after compound addition by MTT assay; assay type: functional, cell-based; details: HCT-116, light or radiation study
[10] = Emission property of compound in CH3CN assessed as maximal wavelength by […]; assay type: physicochemical
[11] = Induction of singlet oxygen production in CH3CN assessed as decrease in fluorescence intensity at 450 nm under photoirradiation with visible light and measured after 30 sec by DPBF based assay relative to control; assay type: functional; parameters: scale not given: the % may be the effect or the level left
[12] = Induction of singlet oxygen production in CH3CN assessed as decrease in fluorescence intensity at 450 nm under photoirradiation with visible light and measured after 15 sec by DPBF based assay relative to control; assay type: functional; parameters: scale not given: the % may be the effect or the level left
[13] = Induction of singlet oxygen production in CH3CN assessed as singlet oxygen quantum yield at 450 nm under photoirradiation with visible light and measured after 15 to 60 sec by DPBF based assay; assay type: functional; details: time 15-60 sec
[14] = Induction of singlet oxygen production in CH3CN assessed as decrease in fluorescence intensity at 450 nm under photoirradiation with visible light and measured after 1 min by DPBF based assay relative to control; assay type: functional; parameters: scale not given: the % may be the effect or the level left
[15] = Induction of singlet oxygen production in CH3CN assessed as decrease in fluorescence intensity at 450 nm under photoirradiation with visible light and measured after 45 sec by DPBF based assay relative to control; assay type: functional; parameters: scale not given: the % may be the effect or the level left
HCT-116 [16] = test: Induction of ROS generation in human HCT-116 cells at 5 uM incubated for 1 hrs under dark condition by DCFH-DA staining based fluorescence analysis; assay type: functional, cell-based
HCT-116 [17] = test: Induction of ROS generation in human HCT-116 cells assessed as increase in oxidative stress at 5 uM preincubated with compound for 1 hrs followed by photoirradiation with 6 cool white lamps by DCFH-DA staining based fluorescence analysis; assay type: functional, cell-based
[18] = Cytotoxicity against HEK293T cells assessed as inhibition of cell growth incubated for 72 hrs under photoirradiation with 6 cool white lamps for 15 mins at 4,28 and 52 hrs after compound addition by MTT assay; assay type: toxicity, cell-based, HEK-293T; details: human
[19] = Cytotoxicity against HEK293T cells assessed as inhibition of cell growth incubated for 72 hrs under dark condition by MTT assay; assay type: toxicity, cell-based, HEK-293T; details: human
[20] = Cytotoxicity against human HaCaT cells assessed as inhibition of cell growth incubated for 72 hrs under dark condition by MTT assay; assay type: toxicity, cell-based
[21] = Cytotoxicity against human HaCaT cells assessed as inhibition of cell growth incubated for 72 hrs under photoirradiation with 6 cool white lamps for 15 mins at 4,28 and 52 hrs after compound addition by MTT assay; assay type: toxicity, cell-based

Row | Compound | Activity [1] [nm] | IC50 (NCI-H460 [2]) [µM] | Activity [3] | IC50 (NCI-H460 [4]) [µM] | IC50 (HCT-116 [5]) [µM] | IC50 (MCF7 [6]) [µM] | IC50 (MCF7 [7]) [µM] | Activity [8] [M⁻¹ cm⁻¹] | IC50 (HCT-116 [9]) [µM] | Activity [10] [nm] | also measured
1 | COc1cccc(CO)c1OCC1=C2C(C)=C(Br)C(C)=[N+]2[B-](C)(C)n2c(C)c(Br)c(C)c21 | 530 | 0.18 | 0.04 | 19 | 14 | 11 | 0.15 | 54912 | 0.192 | 555 | –
2 | CC1=CC(C)=[N+]2C1=C(C=O)c1c(C)cc(C)n1[B-]2(C)C | – | 61 | – | > 100 | 49 | 20 | 15 | – | 40 | – | –
3 | CC1=CC(C)=[N+]2C1=C(COc1ccccc1CO)c1c(C)cc(C)n1[B-]2(C)C | 510 | 0.13 | 0.33 | 16.1 | 13 | 14 | 0.2 | 87209 | 0.15 | 527 | Activity [11]: 8.8%; Activity [12]: 1.1%; Activity [13]: 0.1; Activity [14]: 26.9%; Activity [15]: 18.9%; Activity (HCT-116 [16]): inactive; Activity (HCT-116 [17]): Active
4 | COc1cccc(CO)c1OCC1=C2C(C)=CC(C)=[N+]2[B-](C)(C)n2c(C)cc(C)c21 | 510 | 0.24 | 0.33 | 16 | 12 | 15 | 0.2 | 109069 | 0.38 | 521 | Activity (HCT-116 [16]): inactive; Activity (HCT-116 [17]): Active
5 | CO[B-]1(C)n2c(C)c(I)c(C)c2C(COc2ccccc2COC(C)=O)=C2C(C)=C(I)C(C)=[N+]21 (configuration not stated) | – | 1.3 | – | > 100 | > 100 | 27 | 0.7 | – | 1.7 | – | –
6 | CC1=C(I)C(C)=[N+]2C1=C(COc1ccccc1CO)c1c(C)c(I)c(C)n1[B-]2(C)C | 537 | 0.18 | 0.005 | 53 | 37 | 27 | 0.13 | 41143 | 0.13 | 560 | –
7 | CO[B-]1(C)n2c(C)c(Br)c(C)c2C(COc2ccccc2CO)=C2C(C)=C(Br)C(C)=[N+]21 (configuration not stated) | – | 17 | – | > 100 | > 100 | 27 | 6 | – | 14 | – | –
8 | CO[B-]1(C)n2c(C)c(I)c(C)c2C(COc2ccccc2CO)=C2C(C)=C(I)C(C)=[N+]21 (configuration not stated) | – | ≤ 50 | – | 34 | 42 | 8 | 8 | – | 30 | – | –
9 | CC(=O)OCC1=C2C(C)=CC(C)=[N+]2[B-](F)(F)n2c(C)cc(C)c21 | 517 | – | 0.99 | – | – | – | – | 99848 | – | 528 | –
10 | CC(=O)OCc1ccccc1OCC1=C2C(C)=C(I)C(C)=[N+]2[B-](C)(C)n2c(C)c(I)c(C)c21 | 537 | 0.25 | 0.005 | ≥ 100 | ≥ 100 | 63 | 0.17 | 37520 | 0.18 | 565 | –
11 | COc1cccc(COC(C)=O)c1OCC1=C2C(C)=C(I)C(C)=[N+]2[B-](C)(C)n2c(C)c(I)c(C)c21 | 535 | 0.22 | 0.017 | > 100 | > 100 | > 100 | 0.13 | 58719 | 0.176 | 545 | Activity [11]: 98.8%; Activity [12]: 84.9%; Activity [13]: 0.78; IC50 at 72 h [18]: 0.2 µM; IC50 at 72 h [19]: > 100 µM; Activity [15]: 100%; IC50 at 72 h [20]: > 100 µM; IC50 at 72 h [21]: 0.2 µM
12 | CO[B-]1(C)n2c(C)cc(C)c2C(COc2ccccc2COC(C)=O)=C2C(C)=CC(C)=[N+]21 (configuration not stated) | – | 2 | – | 20 | 17 | 13 | 1.18 | – | 2.3 | – | –
13 | COc1cccc(COC(C)=O)c1OCC1=C2C(C)=C(Br)C(C)=[N+]2[B-](C)(OC)n2c(C)c(Br)c(C)c21 (configuration not stated) | – | 16 | – | 48 | 24 | 15 | 2 | – | 6 | – | –
14 | CC1=C(Br)C(C)=[N+]2C1=C(COc1ccccc1CO)c1c(C)c(Br)c(C)n1[B-]2(C)C | 531 | 0.6 | 0.04 | 69 | 26 | 17 | 0.23 | 42810 | 0.4 | 557 | –
15 | COc1cccc(CO)c1OCC1=C2C(C)=C(I)C(C)=[N+]2[B-](C)(C)n2c(C)c(I)c(C)c21 | 535 | 0.15 | 0.012 | 31 | 13 | 12 | 0.1 | 65694 | 0.15 | 560 | –
